Results from US20130202698A1 (NANJING SANHOME PHARMACEUTICAL CO., LTD., priority 2005, published 2013).
Like-named read-outs stand apart in the source and are kept apart here. Marks after values point to notes of the source that are not given here.

What was measured:
[1] = tested on: Remefline-induced convulsion; experiment: Anticonvulsant effects on Remefline-induced convulsion in mice; type: in vivo
Protocol: In one experiment, the anticonvulsant effects of levo- and dextro-ornidazole against drug-induced convulsions in mice were compared. In four different animal convulsion models, mice were treated by four different seizure-inducing agents, including Remefline, Strychnine, isoniazid, thiosemicarbazide. Levo- or dextro-ornidazole was administered along with the seizure-inducing agents, and several outcomes were measured, including rate of convulsion, mortality rate, time to convulsion (latency), and time to death. Diazepam was used as a positive anticonvulsant control.
Mice are randomized into 4 treatment groups (n=10 with half male and half female): dextro- or levo-ornidazole (dosage 40, 80, 160 mg/kg), vehicle control group (15% propylene glycol in 0.9% sodium chloride, 20 mL/kg) and the positive control group. Animals are treated with known convulsion-inducing agents, followed by the drug or vehicle control given intravenously. The dose volume is 20 mL/kg with an infusion rate of 0.2 mL/10 seconds.

[2] = tested on: Strychnine-induced convulsion; experiment: Anticonvulsant effects on Strychnine-induced convulsion in mice; type: in vivo; details: n=10; for Convulsion Latency: Mean ± SD
Protocol: Mice are randomized into 4 treatment groups (n=10 with half male and half female): dextro- or levo-ornidazole (dosage 40, 80, 160 mg/kg), vehicle control group (15% propylene glycol in 0.9% sodium chloride, 20 mL/kg) and the positive control group. Animals are treated with known convulsion-inducing agents, followed by the drug or vehicle control given intravenously. The dose volume is 20 mL/kg with an infusion rate of 0.2 mL/10 seconds. The anticonvulsant effects are observed and recorded (see Tables 2-6).

[3] = tested on: spontaneous activities of mice; details: both, mouse, in vivo, iv
Protocol: Mice weighing 18-22 g, half male and half female, were placed in the laboratory 24 hours before the test to adapt to the environment. The room temperature was controlled at 24±2° C. Animals were fasted for 8 hours before testing, and then placed in a transparent cage. The number of spontaneous activities of mice was counted by an automatic device (model XZ-4 by Drug Research Institute of China Academy of Medical Sciences). Mice were pre-screened by counting their spontaneous activities for five minutes and unqualified mice were excluded. A total of 110 mice were selected and divided into 11 groups with 10 mice in each group.
Chlorpromazine (3 mg/kg) was used as the positive control. The dose volume was 0.2 mL/10 gram and infusion rate was 0.2 mL/10 seconds.

Purkinje cells = details: dog, in vivo, 200 mg/kg
Protocol: Male and female Beagle dogs were kept in laboratory conditions for 1 week to observe general health conditions. […] Animals were treated at dose of I.V. 200 mg/kg for ornidazole enantiomers, or 10 mL/kg for vehicle control for 2 weeks, then sacrificed for anatomical and pathological examinations.
Quantitative data were analyzed by group test and qualitative data by simplified direct probability method. A 10×10 area under low magnification was used to count cerebellar Purkinje cells.

[4] = rat, in vivo

Compound: Cc1ncc([N+](=O)[O-])n1C[C@@H](O)CCl [D-ornidazole, R-(+)-ornidazole]
- Mortality Rate ([1]; 40 mg/kg i.v., n=10): 10/10
- Rate of Convulsion ([1]; 40 mg/kg i.v., n=10): 10/10
- Rate of Convulsion ([1]; 80 mg/kg i.v., n=10): 5/10*
- Mortality Rate ([1]; 80 mg/kg i.v., n=10, listed as Dextro-ornidazole, 80 mg/kg): 0/10**
- Mortality Rate ([1]; 80 mg/kg i.v., n=10, listed as dextro-ornidazole, 80 mg/kg): 0/10
- Mortality Rate ([1]; 160 mg/kg i.v., n=10): 0/10**
- Rate of Convulsion ([1]; 160 mg/kg i.v., n=10): 0/10**
- Convulsion Latency ([2]; 40 mg/kg i.v.): 6.0 ± 0.7 min
- Mortality Rate ([2]; 40 mg/kg i.v.): 10/10
- Convulsion Latency ([2]; 80 mg/kg i.v.): 8.0 ± 2.0 min
- Mortality Rate ([2]; 80 mg/kg i.v.): 7/10
- Convulsion Latency ([2]; 160 mg/kg i.v.): 9.1 ± 2.6 min
- Mortality Rate ([2]; 160 mg/kg i.v.): 1/10**
- Spontaneous Activities (per 5 min) ([3]; 40 mg/kg, 0.5 h): 52 ± 23 per 5 min
- Spontaneous Activities (per 5 min) ([3]; 40 mg/kg, 1 h): 44 ± 19 per 5 min
- Spontaneous Activities (per 5 min) ([3]; 40 mg/kg, 2 h): 35 ± 20 per 5 min
- Spontaneous Activities (per 5 min) ([3]; 40 mg/kg, 3 h): 47 ± 33 per 5 min
- Spontaneous Activities (per 5 min) ([3]; 40 mg/kg, 4 h): 62 ± 31 per 5 min
- Spontaneous Activities (per 5 min) ([3]; 80 mg/kg, 0.5 h): 25 ± 15 per 5 min
- Spontaneous Activities (per 5 min) ([3]; 80 mg/kg, 1 h): 16 ± 21 per 5 min
- Spontaneous Activities (per 5 min) ([3]; 80 mg/kg, 2 h): 17 ± 15 per 5 min
- Spontaneous Activities (per 5 min) ([3]; 80 mg/kg, 3 h): 27 ± 17 per 5 min
- Spontaneous Activities (per 5 min) ([3]; 80 mg/kg, 4 h): 34 ± 17 per 5 min
- Spontaneous Activities (per 5 min) ([3]; 160 mg/kg, 0.5 h): 0 ± 0 per 5 min
- Spontaneous Activities (per 5 min) ([3]; 160 mg/kg, 1 h): 0 ± 0 per 5 min
- Spontaneous Activities (per 5 min) ([3]; 160 mg/kg, 2 h): 0 ± 0 per 5 min
- Spontaneous Activities (per 5 min) ([3]; 160 mg/kg, 3 h): 3 ± 3 per 5 min
- Spontaneous Activities (per 5 min) ([3]; 160 mg/kg, 4 h): 5 ± 5 per 5 min
- Purkinje cell morphology (Purkinje cells): Purkinje cell denaturing and morphology change
- Distribution in different region of brain, levo- vs dextro-ornidazole [4]: Similar
